After the bases stand the sugars from the 5' end (letter, count) and the backbone: PS all phosphorothioate, else s phosphorothioate and o phosphodiester by linkage. Methylation of C is not given here. l = locked nucleic acid (LNA); d = 2'-deoxy (DNA)

These results are taken from the OligoGym collection.

This data set concerns the target ANGPTL2. The following applies: ASO.

Turning to “CCACACCCAACATTTTA (sugars l2 d13 l2, PS)”, the target mRNA inhibition (5 µM) was determined as 56.8% and the target mRNA inhibition (25 µM) stood at 63%.
For “AAGCTGTTGAAATGTATG (sugars l3 d11 l4, PS)”, the target mRNA inhibition by setting is: (5 µM) 41.3%; (25 µM) 30.4%.
The like results for “GATGATGCGGTTGTAGG (sugars l2 d13 l2, PS)” were, in that order, 67% and 78%.
The like results for “TGGTTGATGATGCGGTT (sugars l2 d13 l2, PS)” were, in that order, 81.7% and 87.5%.
Take “TGATGATGCGGTTGTAGGT (sugars l1 d16 l2, PS)”: the target mRNA inhibition (5 µM) stood at 45.5% and the target mRNA inhibition (25 µM) stood at 63.9%.
The like results for “TCAGTGGTGAGATGGGTCAC (sugars l1 d17 l2, PS)” were, in that order, 29.1% and 40.7%.
The like results for “AATTTACAGTTCTTTGTC (sugars l4 d10 l4, PS)” were, in that order, 78.2% and 83.3%.
The like results for “CAGGCCAACACTAACTCGG (sugars l1 d16 l2, PS)” were, in that order, 49% and 57%.
TGATGATGCGGTTGTA (sugars l3 d11 l2, PS): the target mRNA inhibition (5 µM) was 73.8% and the target mRNA inhibition (25 µM) amounted to 85.9%.
The like results for ATGATGCGGTTGTAGG (sugars l2 d11 l3, PS) were, in that order, 69.8% and 81.1%.
The like results for “ATTTTGAGATTCCCCCAAAG (sugars l1 d17 l2, PS)” were, in that order, 10.8% and 2.99%.
Consider “ACCATTTTGAGATTCCCC (sugars l1 d15 l2, PS)”, for which the target mRNA inhibition was -8.3% (5 µM) and 18.9% (25 µM).
For “CTAGGCACTCAATCCCA (sugars l1 d14 l2, PS)”, the target mRNA inhibition is, setting by setting: (5 µM) 21.9%; (25 µM) 31.5%.
The like results for GTAGGTAGGCGAGGAG (sugars l2 d12 l2, PS) were, in that order, 16.3% and -18.7%.
The like results for “CCAACCATAAATTAATTG (sugars l4 d10 l4, PS)” were, in that order, 61.8% and 74.5%.
The like results for “GTTTCTGACAAAGCCCG (sugars l1 d13 l3, PS)” were, in that order, 79.6% and 84.3%.
As to TTATAGGGTGGAATAAA (sugars l4 d9 l4, PS), the target mRNA inhibition (5 µM) amounted to 18.2% and the target mRNA inhibition (25 µM) came out at 26.9%.
The like results for “GTGCCAAATCCTAGACA (sugars l2 d13 l2, PS)” were, in that order, 54.5% and 68.2%.
Consider “TCTCCTAAGAGCAAAGCT (sugars l2 d14 l2, PS)”, for which the target mRNA inhibition runs as follows: (5 µM) 37.2%; (25 µM) 52.9%.
The like results for “GAATTTTCTTTACCTTAG (sugars l4 d11 l3, PS)” were, in that order, 41.4% and 56%.
With “GATGATGCGGTTGTAGGT (sugars l1 d15 l2, PS)”, the target mRNA inhibition (5 µM) stood at 62.4% and the target mRNA inhibition (25 µM) worked out at 73%.
The like results for “TGAATGGAAGATACAAAACT (sugars l4 d12 l4, PS)” were, in that order, 11.6% and 44.7%.
The like results for “GAACTCAGCCCAGTAGAC (sugars l1 d15 l2, PS)” were, in that order, -4.7% and 17.5%.
The like results for “CCTGGTAAAATCTTACA (sugars l3 d11 l3, PS)” were, in that order, 37.4% and 48.2%.
Take “TTCTCCTAGAAAGCAGT (sugars l1 d12 l4, PS)”: the target mRNA inhibition by setting is: (5 µM) 43%; (25 µM) 61.9%.
The like results for “ACTAAATGAACTTCCACA (sugars l4 d11 l3, PS)” were, in that order, 44.6% and 64.9%.
The like results for “ACATGTATATTATGAAGGTA (sugars l4 d14 l2, PS)” were, in that order, 18.1% and 8.64%.
For the sequence “GAGTTTGGATCATAGAA (sugars l4 d10 l3, PS)”, the target mRNA inhibition by setting is: (5 µM) 41.2%; (25 µM) 65.8%.
The like results for “CATCTAAGGAATGTGGT (sugars l4 d11 l2, PS)” were, in that order, 63.7% and 71.9%.
Turning to “TTGATGATGCGGTTGTAGG (sugars l1 d16 l2, PS)”, the target mRNA inhibition reads like this: (5 µM) 44.8%; (25 µM) 55.9%.
The like results for “ACCATTTTGAGATTCCC (sugars l2 d13 l2, PS)” were, in that order, 30% and 24.7%.
